In PubChem BioAssay AID330 (DTP/NCI, 2004):
Values joined by “and” are separate entries in the source; they are usually repeats but may differ in a detail not shown here. Equal entries are not always repeated. Inconclusive results and toxic doses are left out.

System: P388 leukemia ip, CD2F1 mice, survival T/C
Experiment: NCI In Vivo Anticancer Drug Screen. Data for tumor model P388 Leukemia (intraperitoneal) in CD2F1 (CDF1) mice
Details: endpoint: median survival time, higher = longer survival
How it was run: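 Mice carrying the transplanted tumor received test compound or vehicle. Survival was recorded in each group, and the value is the treated-group measurement divided by that of the vehicle-treated control group.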

COc1cccc2c1C(=O)c1c(O)c3c(c(O)c1C2=O)CC(O)(C(=O)CO)CC3OC1CC(N)C(O)C(C)O1 (configuration not stated)
T/C (dose: 0.03 mg/kg/injection, schedule: Q04DX003 (ip), vehicle: other): 104 % of control
T/C (dose: 0.05 mg/kg/injection, schedule: Q04DX003 (ip), vehicle: other): 104 % of control
T/C (dose: 0.05 mg/kg/injection, schedule: Q04DX003 (ip), vehicle: saline): 110 % of control
T/C (dose: 0.08 mg/kg/injection, schedule: Q04DX003 (ip), vehicle: other): 115 % of control
T/C (dose: 0.1 mg/kg/injection, schedule: Q04DX003 (ip), vehicle: other): 98 % of control
T/C (dose: 0.12 mg/kg/injection, schedule: Q04DX003 (ip), vehicle: other): 122 % of control
T/C (dose: 0.3 mg/kg/injection, schedule: Q04DX003 (ip), vehicle: other): 112 % of control
T/C (dose: 0.38 mg/kg/injection, schedule: Q01DX009 (ip), vehicle: water): 150 % of control
T/C (dose: 0.5 mg/kg/injection, schedule: Q04DX003 (ip), vehicle: other): 100 % of control
T/C (dose: 0.6 mg/kg/injection, schedule: Q04DX003 (ip), vehicle: saline): 154 % of control
T/C (dose: 0.75 mg/kg/injection, schedule: Q01DX009 (ip), vehicle: water): 159 % of control
T/C (dose: 1.0 mg/kg/injection, schedule: Q04DX003 (ip), vehicle: other): 100 % of control
T/C (dose: 1.0 mg/kg/injection, schedule: Q04DX003 (ip), vehicle: saline): 110 % of control and 106 % of control
T/C (dose: 1.13 mg/kg/injection, schedule: Q04DX003 (ip), vehicle: water): 120 % of control
T/C (dose: 1.3 mg/kg/injection, schedule: Q04DX003 (ip), vehicle: other): 152 % of control
T/C (dose: 1.3 mg/kg/injection, schedule: Q04DX003 (ip), vehicle: saline): 156 % of control
T/C (dose: 1.5 mg/kg/injection, schedule: Q01DX009 (ip), vehicle: water): 165 % of control
T/C (dose: 1.56 mg/kg/injection, schedule: Q04DX003 (ip), vehicle: saline): 163 % of control
T/C (dose: 1.9 mg/kg/injection, schedule: Q04DX003 (ip), vehicle: other): 153 % of control
T/C (dose: 1.9 mg/kg/injection, schedule: Q04DX003 (ip), vehicle: saline): 156 % of control
T/C (dose: 2.0 mg/kg/injection, schedule: Q04DX003 (ip), vehicle: other): 97 % of control
T/C (dose: 2.0 mg/kg/injection, schedule: Q04DX003 (ip), vehicle: saline): 113 % of control and 116 % of control
T/C (dose: 2.25 mg/kg/injection, schedule: Q04DX003 (ip), vehicle: water): 121 % of control
T/C (dose: 2.8 mg/kg/injection, schedule: Q04DX003 (ip), vehicle: other): 169 % of control
T/C (dose: 2.8 mg/kg/injection, schedule: Q04DX003 (ip), vehicle: saline): 182 % of control
T/C (dose: 2.9 mg/kg/injection, schedule: Q01DX009 (ip), vehicle: saline): 104 % of control
T/C (dose: 3.0 mg/kg/injection, schedule: Q01DX009 (ip), vehicle: water): 158 % of control
T/C (dose: 3.0 mg/kg/injection, schedule: Q04DX003 (ip), vehicle: water): 114 % of control
T/C (dose: 3.12 mg/kg/injection, schedule: Q04DX003 (ip), vehicle: saline): 170 % of control
T/C (dose: 3.13 mg/kg/injection, schedule: Q01DX009 (ip), vehicle: water): 163 % of control
T/C (dose: 3.13 mg/kg/injection, schedule: Q04DX003 (ip), vehicle: other): 118 % of control
T/C (dose: 4.0 mg/kg/injection, schedule: Q04DX003 (ip), vehicle: other): 115 % of control
T/C (dose: 4.0 mg/kg/injection, schedule: Q04DX003 (ip), vehicle: saline): 119 % of control
T/C (dose: 4.2 mg/kg/injection, schedule: Q04DX003 (ip), vehicle: other): 179 % of control
T/C (dose: 4.2 mg/kg/injection, schedule: Q04DX003 (ip), vehicle: saline): 180 % of control
T/C (dose: 5.8 mg/kg/injection, schedule: Q01DX009 (ip), vehicle: saline): 124 % of control
T/C (dose: 6.0 mg/kg/injection, schedule: Q01DX009 (ip), vehicle: water): 183 % of control
T/C (dose: 6.25 mg/kg/injection, schedule: Q01DX009 (ip), vehicle: water): 200 % of control
T/C (dose: 6.25 mg/kg/injection, schedule: Q04DX003 (ip), vehicle: other): 120 % of control
T/C (dose: 6.25 mg/kg/injection, schedule: Q04DX003 (ip), vehicle: saline): 170 % of control
T/C (dose: 6.3 mg/kg/injection, schedule: Q04DX003 (ip), vehicle: other): 179 % of control
T/C (dose: 6.3 mg/kg/injection, schedule: Q04DX003 (ip), vehicle: saline): 168 % of control
T/C (dose: 7.5 mg/kg/injection, schedule: Q04DX003 (ip), vehicle: clinical formulation): 161 % of control
T/C (dose: 8.0 mg/kg/injection, schedule: Q04DX003 (ip), vehicle: saline): 109 % of control
T/C (dose: 9.0 mg/kg/injection, schedule: Q04DX003 (ip), vehicle: water): 121 % of control
T/C (dose: 9.5 mg/kg/injection, schedule: Q04DX003 (ip), vehicle: other): 179 % of control
T/C (dose: 9.5 mg/kg/injection, schedule: Q04DX003 (ip), vehicle: saline): 208 % of control
T/C (dose: 10.0 mg/kg/injection, schedule: Q04DX003 (ip), vehicle: water): 112 % of control
T/C (dose: 12.0 mg/kg/injection, schedule: Q01DX009 (ip), vehicle: water): 204 % of control
T/C (dose: 12.0 mg/kg/injection, schedule: Q04DX003 (ip), vehicle: water): 116 % of control
T/C (dose: 12.5 mg/kg/injection, schedule: Q01DX009 (ip), vehicle: water): 229 % of control
T/C (dose: 14.2 mg/kg/injection, schedule: Q04DX003 (ip), vehicle: other): 198 % of control
T/C (dose: 14.2 mg/kg/injection, schedule: Q04DX003 (ip), vehicle: saline): 193 % of control
T/C (dose: 15.0 mg/kg/injection, schedule: Q04DX003 (ip), vehicle: clinical formulation): 152 % of control
T/C (dose: 16.0 mg/kg/injection, schedule: Q04DX003 (ip), vehicle: saline): 119 % of control
T/C (dose: 21.3 mg/kg/injection, schedule: Q04DX003 (ip), vehicle: other): 207 % of control
T/C (dose: 21.3 mg/kg/injection, schedule: Q04DX003 (ip), vehicle: saline): 86 % of control
T/C (dose: 22.5 mg/kg/injection, schedule: Q04DX003 (ip), vehicle: water): 109 % of control and 115 % of control
T/C (dose: 23.4 mg/kg/injection, schedule: Q01DX009 (ip), vehicle: saline): 123 % of control and 217 % of control
T/C (dose: 25.0 mg/kg/injection, schedule: Q01DX009 (ip), vehicle: water): 220 % of control
T/C (dose: 25.0 mg/kg/injection, schedule: Q04DX003 (ip), vehicle: saline): 98 % of control
T/C (dose: 32.0 mg/kg/injection, schedule: Q04DX003 (ip), vehicle: other): 160 % of control
T/C (dose: 32.0 mg/kg/injection, schedule: Q04DX003 (ip), vehicle: saline): 172 % of control
T/C (dose: 36.0 mg/kg/injection, schedule: Q04DX003 (ip), vehicle: water): 163 % of control
T/C (dose: 44.0 mg/kg/injection, schedule: Q04DX003 (ip), vehicle: water): 110 % of control
T/C (dose: 45.0 mg/kg/injection, schedule: Q04DX003 (ip), vehicle: water): 124 % of control
T/C (dose: 48.0 mg/kg/injection, schedule: Q04DX003 (ip), vehicle: other): 87 % of control
T/C (dose: 48.0 mg/kg/injection, schedule: Q04DX003 (ip), vehicle: water): 175 % of control and 294 % of control
T/C (dose: 50.0 mg/kg/injection, schedule: Q01DX009 (ip), vehicle: water): 117 % of control
T/C (dose: 50.0 mg/kg/injection, schedule: Q04DX003 (ip), vehicle: other): 161 % of control
T/C (dose: 64.0 mg/kg/injection, schedule: Q04DX003 (ip), vehicle: saline): 167 % of control and 153 % of control
T/C (dose: 72.0 mg/kg/injection, schedule: Q04DX003 (ip), vehicle: other): 93 % of control
T/C (dose: 72.0 mg/kg/injection, schedule: Q04DX003 (ip), vehicle: water): 196 % of control
T/C (dose: 80.0 mg/kg/injection, schedule: Q04DX003 (ip), vehicle: water): 118 % of control
T/C (dose: 90.0 mg/kg/injection, schedule: Q04DX003 (ip), vehicle: water): 159 % of control and 174 % of control
T/C (dose: 108.0 mg/kg/injection, schedule: Q04DX003 (ip), vehicle: other): 88 % of control
T/C (dose: 108.0 mg/kg/injection, schedule: Q04DX003 (ip), vehicle: water): 163 % of control
T/C (dose: 128.0 mg/kg/injection, schedule: Q04DX003 (ip), vehicle: other): 182 % of control
T/C (dose: 128.0 mg/kg/injection, schedule: Q04DX003 (ip), vehicle: saline): 204 % of control and 184 % of control
T/C (dose: 160.0 mg/kg/injection, schedule: Q04DX003 (ip), vehicle: water): 95 % of control
T/C (dose: 180.0 mg/kg/injection, schedule: Q04DX003 (ip), vehicle: water): 168 % of control
T/C (dose: 256.0 mg/kg/injection, schedule: Q04DX003 (ip), vehicle: other): 175 % of control
T/C (dose: 256.0 mg/kg/injection, schedule: Q04DX003 (ip), vehicle: saline): 110 % of control and 213 % of control
T/C (dose: 267.0 mg/kg/injection, schedule: Q04DX003 (ip), vehicle: water): 109 % of control
T/C (dose: 360.0 mg/kg/injection, schedule: Q04DX003 (ip), vehicle: water): 97 % of control
T/C (dose: 400.0 mg/kg/injection, schedule: Q04DX003 (ip), vehicle: water): 99 % of control
T/C (dose: 512.0 mg/kg/injection, schedule: Q04DX003 (ip), vehicle: saline): 90 % of control
